Results reported in patent publication US6946132B2, “Vaccine compositions and methods useful in inducing immune protection against arthritogenic peptides involved in the pathogenesis of rheumatoid arthritis” (The Regents of the University of California, priority 1994, dated 2005).

Assays:
[1] = test system: anti-dnaJ antibodies in sera from patients with early stage RA; test: Inhibition of antibody binding to dnaJ (ELISA, sera preincubated with peptide); parameters: species or system human; settings: sera diluted 1:100, preincubated overnight at 4° C. with peptide; % inhibition; FIG. 3
Protocol: FIG. 3 depicts the results of an inhibition study for inhibition of the activity of anti-dnaJ antibodies produced in separate sera samples from 51 early stage RA patients by intact dnaJ. The percent inhibition shown by bars in the graph of FIG. 3 is expressed in terms of the formula: % inhibition=100 I-OD460 with rdnaJ)(OD460 without rdnaJ) The control sera were obtained from humans without RA.
Microtiter plates were coated with recombinant dnaJ (10 μg/ml). Either sera obtained from patients with early stage RA or sera from control subjects were diluted 1:100 in borate buffered saline. Half of each specimen was incubated overnight at 4° C. with the wild-type dnaJ peptide described in Example III. Then the paired serum specimens were added to the dnaJ coated plates.
After 4 hours incubation, antibody binding was detected with alkaline phosphatase labelled goat anti-human IgG; levels of detected antibody binding were determined according to the following formula: % inhibition=100 (1-OD460with wild-type peptide)(OD460without wild-type peptide)

[2] = test system: lymphocytes from patients with early stage RA; test: Proliferation of lymphocytes from RA patients exposed to RA susceptibility sequence peptides (stimulation index); assay type: cell-based, human; settings: for response of RA patient blood lymphocytes to wild-type peptide (dnaJp1) relative to response to mutant peptide (dnaJpV): PBL's of RA patients
Excerpt: FIG. 2 quantifies proliferation of cultured lymphocytes from adult RA and juvenile RA (JRA) patients following exposure of the cells to synthetic dnaJp1 (amino acid sequence […]; SEQ. ID. No. 4) or a mutant dnaJ peptide having the amino acid sequence […] (“dnaJpV”; SEQ. ID. No. 5). The control culture tested consisted of lymphocytes obtained from adults without RA (“normals”). The responses shown by bars in the graph of FIG. 2 are expressed in terms of a lymphocyte stimulation index; i.e., (CPM detected in cultures with dnaJ)/(CPM detected in cultures without dnaJ).
(§1) Lymphocytes from patients with early untreated rheumatoid arthritis (RA) were obtained from blood (peripheral blood lymphocytes, or “PBL's”) for from synovial fluids using standard aseptic techniques. The cells were incubated for 7 days with purified recombinant E. coli dnaJ (10 μg/ml, obtained as described in Example I) in RPMI 1640 medium supplemented with 10% prescreened human AB type serum. Lymphocytes from 10 control subjects (i.e., persons without RA) were treated similarly. Proliferation during the last 16 hours of culture was expressed as a stimulation index=cpm in cultures with dnaJ/cpm in cultures without dnaJ.
Lymphocytes from patients with early stage RA were contacted with one of two RA susceptibility sequence peptides according to the protocol described in Example II. The peptides used were either a 15 amino acid synthetic peptide having the wild-type sequence […] or a 15 amino acid synthetic mutant peptide having the sequence […].

[3] = test system: purified HLA MHC Class II epitopes; test: ELISA binding of biotinylated dnaJ peptides to immobilized HLA molecules; parameters: species or system human; settings: ELISA absorption at 405 nm; FIG. 5
Excerpt: FIG. 5 is a table comparing the binding efficiencies of several dnaJ peptides for purified HLA MHC Class II epitopes. Binding was detected by ELISA between biotinylated dnaJ peptides and immobilized HLA molecules. The results are expressed in the table as absorption units at 405 nm. The peptides tested were: dnaJp1 (SEQ. ID. No. 4), dnaJpV (SEQ. ID. No. 5), dnaJp2 (SEQ. ID. No. 6), S1 (SEQ. ID. No. 7) and S6 (SEQ. ID. No. 8). S1 and […] are synthetic peptides whose amino acid sequence corresponds to the sequence of known HLA DR antigens.

[4] = test system: lymphocytes from patients with early untreated rheumatoid arthritis; test: Proliferation of lymphocytes from early stage RA patients exposed to rdnaJ (stimulation index); assay type: cell-based, human; settings: rdnaJ 10 μg/ml, 7 days, FIG. 1
Excerpt: FIG. 1 quantifies proliferation of cultured lymphocytes from 22 patients with early, untreated RA (“early stage” RA) following exposure of the cells to intact bacterial dnaJ protein. The responses shown by bars in the graph of FIG. 1 are expressed in terms of a lymphocyte stimulation index; i.e., (CPM detected in cultures with dnaJ)/(CPM detected in cultures without dnaJ). “CPM” refers to counts-per-minute. The control culture tested consisted of lymphocytes obtained from humans without RA.
as §1

QKRAAYDQYGHAAFE (Synthetic dnaJp1)
inhibition of antibody binding to rdnaJ in RA sera relative to inhibition in control sera [1]: ~3 times | response of RA patient PBL's to wild-type peptide relative to response of lymphocytes from control subjects to wild-type peptide ([2]; FIG. 2): approximately 9 times | response of RA patient blood lymphocytes to wild-type peptide (dnaJp1) relative to response to mutant peptide (dnaJpV) ([2]; FIG. 2): ~10 times | response of RA patient blood lymphocytes to wild-type peptide (dnaJp1) relative to response to mutant peptide (dnaJpV) ([2]; FIG. 2, listed as wild-type peptide): more than 5 times | binding to HLA MHC Class II molecule epitopes relative to human HLA Dw4 peptides (S1 and S6) [3]: ≥ 100 times

B1: rdnaJ: recombinant E. coli dnaJ heat shock protein, expressed and affinity purified, 41 kD (protein, UniProt P08622 2-376, looked up)
Chaperone protein DnaJ: AKQDYYEILGVSKTAEEREIRKAYKRLAMKYHPDRNQGDKEAEAKFKEIKEAYEVLTDSQKRAAYDQYGHAAFEQGGMGGGGFGGGADFSDIFGDVFGDIFGGGRGRQRAARGADLRYNMELTLEEAVRGVTKEIRIPTLEECDVCHGSGAKPGTQPQTCPTCHGSGQVQMRQGFFAVQQTCPHCQGRGTLIKDPCNKCHGHGRVERSKTLSVKIPAGVDTGDRIRLAGEGEAGEHGAPAGDLYVQVQVKQHPIFEREGNNLYCEVPINFAMAALGGEIEVPTLDGRVKLKVPGETQTGKLFRMRGKGVKSVRGGAQGDLLCRVVVETPVGLNERQKQLLQELQESFGGPTGEHNSPRSKSFFDGVKKFFDDLTR
proliferation response of PBL's relative to response of control subject lymphocytes ([4]; PBL's from 14 early stage RA patients): approximately 3.6 times | proliferation response of synovial fluid lymphocytes relative to response of control subject lymphocytes ([4]; synovial fluid lymphocytes from 8 early stage RA patients): approximately 2.3 times
